From PubChem BioAssay AID330 (DTP/NCI, 2004) come the findings set out here.

The test system of the assay is P388 leukemia ip, CD2F1 mice, survival T/C. Kind of assay: NCI In Vivo Anticancer Drug Screen. Data for tumor model P388 Leukemia (intraperitoneal) in CD2F1 (CDF1) mice. Conditions: endpoint: median survival time, higher = longer survival. The essentials:
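Mice carrying the transplanted tumor received test compound or vehicle. Survival was recorded in each group, and the value is the treated-group measurement divided by that of the vehicle-treated control group.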

Where [1] appears, read: dose: 100.0 mg/kg/injection, schedule: Q01DX001 (ip), vehicle: Klucel (hydroxypropylcellulose) (HPC).
[2] abbreviates: dose: 200.0 mg/kg/injection, schedule: Q01DX001 (ip), vehicle: Klucel (hydroxypropylcellulose) (HPC).
Where [3] appears, read: dose: 400.0 mg/kg/injection, schedule: Q01DX001 (ip), vehicle: Klucel (hydroxypropylcellulose) (HPC).
Setting [4] is: dose: 50.0 mg/kg/injection, schedule: Q01DX009 (ip), vehicle: saline with Tween-80.
The mark [5] stands for this setting: dose: 100.0 mg/kg/injection, schedule: Q01DX009 (ip), vehicle: saline with Tween-80.
[6] abbreviates: dose: 50.0 mg/kg/injection, schedule: Q01DX005 (ip), vehicle: Klucel (hydroxypropylcellulose) (HPC).
Where [7] appears, read: dose: 100.0 mg/kg/injection, schedule: Q01DX005 (ip), vehicle: Klucel (hydroxypropylcellulose) (HPC).
Setting [8] is: dose: 200.0 mg/kg/injection, schedule: Q01DX005 (ip), vehicle: Klucel (hydroxypropylcellulose) (HPC).
The mark [9] stands for this setting: dose: 6.25 mg/kg/injection, schedule: Q01DX005 (ip), vehicle: Klucel (hydroxypropylcellulose) (HPC).
The mark [10] stands for this setting: dose: 12.5 mg/kg/injection, schedule: Q01DX005 (ip), vehicle: Klucel (hydroxypropylcellulose) (HPC).
Setting [11] is: dose: 25.0 mg/kg/injection, schedule: Q01DX005 (ip), vehicle: Klucel (hydroxypropylcellulose) (HPC).
Where [12] appears, read: dose: 12.5 mg/kg/injection, schedule: Q01DX005 (ip), vehicle: saline with Tween-80.
[13] abbreviates: dose: 25.0 mg/kg/injection, schedule: Q01DX005 (ip), vehicle: saline with Tween-80.
The mark [14] stands for this setting: dose: 50.0 mg/kg/injection, schedule: Q01DX005 (ip), vehicle: saline with Tween-80.
Where [15] appears, read: dose: 60.0 mg/kg/injection, schedule: Q01DX005 (ip), vehicle: saline with Tween-80.
The mark [16] stands for this setting: dose: 120.0 mg/kg/injection, schedule: Q01DX005 (ip), vehicle: saline with Tween-80.
Setting [17] is: dose: 240.0 mg/kg/injection, schedule: Q01DX005 (ip), vehicle: saline with Tween-80.
Setting [18] is: dose: 50.0 mg/kg/injection, schedule: Q01DX009 (ip), vehicle: saline.
Setting [19] is: dose: 200.0 mg/kg/injection, schedule: Q01DX009 (ip), vehicle: saline.
[20] abbreviates: dose: 12.5 mg/kg/injection, schedule: Q01DX009 (ip), vehicle: saline with Tween-80.
Setting [21] is: dose: 25.0 mg/kg/injection, schedule: Q01DX009 (ip), vehicle: saline with Tween-80.

Several values for one entry are separate records, joined by “and”; a condition that tells them apart may be missing. Identical values can stand only once. Inconclusive results and toxic doses are left out. Peptide text beside a SMILES is read from it. * marks the point of attachment. Cbz = O=C(OCc1ccccc1)*; Bn = c1ccc(C*)cc1

In the case of `C=CC(C)(C)C12Oc3c(ccc(OC)c3OC)C1=COc1cc(O)ccc12` (stereo not drawn), the T/C reads like this: under setting [1], 101 % of control; under setting [2], 105 % of control; under setting [3], 97 % of control.
Regarding `O=c1c(-c2ccccc2)nnc2sc(-c3cccc(Cl)c3)nn12`, the T/C reads like this: (dose: 50.0 mg/kg/injection, schedule: Q04DX002 (ip), vehicle: Klucel (hydroxypropylcellulose) (HPC)) 98 % of control; (dose: 100.0 mg/kg/injection, schedule: Q04DX002 (ip), vehicle: Klucel (hydroxypropylcellulose) (HPC)) 93 % of control; (dose: 200.0 mg/kg/injection, schedule: Q04DX002 (ip), vehicle: Klucel (hydroxypropylcellulose) (HPC)) 90 % of control.
As for `O=C(Nc1ccc(Cl)cc1)OCC1C2C=CC(C2)C1CO` (stereo not drawn), the T/C was 101 % of control (dose: 100.0 mg/kg/injection, schedule: Q04DX003 (ip), vehicle: Klucel (hydroxypropylcellulose) (HPC)); 95 % of control (dose: 200.0 mg/kg/injection, schedule: Q04DX003 (ip), vehicle: Klucel (hydroxypropylcellulose) (HPC)); 104 % of control (dose: 400.0 mg/kg/injection, schedule: Q04DX003 (ip), vehicle: Klucel (hydroxypropylcellulose) (HPC)).
On to `O=S(=O)(O)c1ccc2c(N=Nc3ccccc3[As](=O)(O)O)c(O)c(S(=O)(=O)O)cc2c1`, for which the T/C reads like this: under setting [4], 104 % of control; under setting [5], 113 % of control.
As to `C[CH2][Ge]([Cl])([Cl])[CH2]C`, the T/C under setting [6] is 91 % of control and the T/C under setting [7] is 87 % of control.
Turning to `CCOC(=O)C1(CC)CC(OCC)OC1=O` (stereo not drawn), the T/C is, setting by setting: under setting [6], 100 % of control; under setting [7], 93 % of control; under setting [8], 97 % of control.
For `CC(C)CC(NC(=O)C(CSCc1ccccc1)NC(=O)OCc1ccccc1)C(N)=O` (stereo not drawn) (Cbz-Cys(Bn)-Leu-NH2; configuration not given here), the T/C is 102 % of control under setting [9], 86 % of control under setting [10] and 86 % of control under setting [11].
Regarding `O=C(Nc1cccc(C(F)(F)F)c1)c1cc(Br)cc(Br)c1O`, the T/C reads like this: (dose: 6.25 mg/kg/injection, schedule: Q01DX009 (ip), vehicle: Klucel (hydroxypropylcellulose) (HPC)) 95 % of control; (dose: 12.5 mg/kg/injection, schedule: Q01DX009 (ip), vehicle: Klucel (hydroxypropylcellulose) (HPC)) 100 % of control; (dose: 25.0 mg/kg/injection, schedule: Q01DX009 (ip), vehicle: Klucel (hydroxypropylcellulose) (HPC)) 91 % of control.
As to `CC(C)(CO)NC(=O)c1ccccc1Br`, the T/C by setting is: under setting [4], 100 % of control; under setting [5], 100 % of control; (dose: 200.0 mg/kg/injection, schedule: Q01DX009 (ip), vehicle: saline with Tween-80) 99 % of control.
Take `Cc1cc(=O)c2c(C)cccc2[nH]1`: the T/C reads like this: (dose: 2.75 mg/kg/injection, schedule: Q01DX009 (ip), vehicle: saline with Tween-80) 100 % of control; (dose: 4.13 mg/kg/injection, schedule: Q01DX009 (ip), vehicle: saline with Tween-80) 118 % of control; (dose: 6.25 mg/kg/injection, schedule: Q01DX009 (ip), vehicle: saline with Tween-80) 100 % of control; (dose: 9.38 mg/kg/injection, schedule: Q01DX009 (ip), vehicle: saline with Tween-80) 100 % of control.
On to `Nc1nnc(-c2cccc(-c3nnc(N)o3)c2)o1`, for which the T/C is 98 % of control (dose: 60.0 mg/kg/injection, schedule: Q01DX005 (ip), vehicle: saline); 99 % of control (dose: 120.0 mg/kg/injection, schedule: Q01DX005 (ip), vehicle: saline); 102 % of control (dose: 240.0 mg/kg/injection, schedule: Q01DX005 (ip), vehicle: saline).
For the compound `CC(C)CCc1c(N)nc(N)[nH]c1=O`, the T/C by setting is: under setting [12], 101 % of control; under setting [13], 97 % of control; under setting [14], 97 % of control.
As for `COc1ccc2nc3ccccc3c(SCCCCCCSc3c4ccccc4nc4ccc(OC)cc34)c2c1`, the T/C was 101 % of control (dose: 15.0 mg/kg/injection, schedule: Q01DX005 (ip), vehicle: Klucel (hydroxypropylcellulose) (HPC)); 98 % of control (dose: 30.0 mg/kg/injection, schedule: Q01DX005 (ip), vehicle: Klucel (hydroxypropylcellulose) (HPC)); 100 % of control and 89 % of control and 90 % of control (dose: 60.0 mg/kg/injection, schedule: Q01DX005 (ip), vehicle: Klucel (hydroxypropylcellulose) (HPC)); 89 % of control (dose: 240.0 mg/kg/injection, schedule: Q01DX005 (ip), vehicle: Klucel (hydroxypropylcellulose) (HPC)).
On to `CCOC(=O)N1CCN(c2ccc(/C=C\c3cccc(/C=C\c4ccc(N5CCN(C(=O)OCC)CC5)cc4)[n+]3C)cc2)CC1`, for which the T/C is, setting by setting: (dose: 3.12 mg/kg/injection, schedule: Q01DX009 (ip), vehicle: saline) 118 % of control; (dose: 6.25 mg/kg/injection, schedule: Q01DX009 (ip), vehicle: saline) 111 % of control.
For the compound `CC(=O)NC(C)c1ccc2ccccc2c1` (stereo not drawn), the T/C is 97 % of control under setting [15], 96 % of control under setting [16] and 97 % of control under setting [17].
For `O=C1c2ccccc2C(=O)c2c3c(cc([N+](=O)[O-])c21)OCO3`, the T/C was 100 % of control under setting [15], 89 % of control under setting [16] and 87 % of control under setting [17].
On to `COc1ccccc1OC(C)=O`, for which the T/C runs as follows: under setting [18], 97 % of control; under setting [19], 88 % of control.
For the compound `CN1N=Nc2ccccc2C1(O)c1ccccc1` (stereo not drawn), the T/C by setting is: under setting [1], 98 % of control; under setting [2], 98 % of control; under setting [3], 102 % of control.
Turning to `COC(=O)C1=CO[C@@H](OC2OC(CO)C(O)C(O)C2O)[C@H]2[C@@H]1C=C[C@@]21C=C([C@H](C)OC(=O)/C=C/c2ccc(OC3OC(CO)C(O)C(O)C3O)cc2)C(=O)O1` (stereo partly drawn), the T/C was 105 % of control (dose: 56.0 mg/kg/injection, schedule: Q01DX005 (ip), vehicle: water); 105 % of control (dose: 112.0 mg/kg/injection, schedule: Q01DX005 (ip), vehicle: water); 104 % of control (dose: 225.0 mg/kg/injection, schedule: Q01DX005 (ip), vehicle: water).
On to `CC(C)(C)/C=C/N1CCN=N1`, for which the T/C is, setting by setting: under setting [12], 100 % of control; under setting [13], 104 % of control; under setting [14], 102 % of control and 109 % of control.
With `ClC1CN2CCC1CC2` (stereo not drawn), the T/C was 91 % of control under setting [20], 95 % of control under setting [21] and 100 % of control under setting [4].
`O=C1C=CC(Cc2ccccc2)N1C(=O)c1ccccc1` (stereo not drawn): the T/C is 99 % of control under setting [14]; 100 % of control (dose: 100.0 mg/kg/injection, schedule: Q01DX005 (ip), vehicle: saline with Tween-80); 97 % of control (dose: 200.0 mg/kg/injection, schedule: Q01DX005 (ip), vehicle: saline with Tween-80).
Regarding `CCC(CC)C(=O)NC(=O)NC(N)=O`, the T/C runs as follows: under setting [15], 97 % of control; under setting [16], 97 % of control; under setting [17], 112 % of control.
As for `CCCCN(CCCC)CCC(=O)c1ccc(OC)c2ccccc12`, the T/C runs as follows: under setting [20], 110 % of control; under setting [21], 119 % of control; under setting [4], 111 % of control.
Consider `CC(=O)/C=C1/NC(C(=O)c2ccccc2)=CNC1c1ccccc1` (stereo not drawn), for which the T/C by setting is: under setting [15], 102 % of control; under setting [16], 91 % of control; under setting [17], 95 % of control.
For the compound `C(=C\c1ccnnc1)/c1ccccc1`, the T/C by setting is: under setting [18], 97 % of control; (dose: 100.0 mg/kg/injection, schedule: Q01DX009 (ip), vehicle: saline) 106 % of control; under setting [19], 101 % of control.
Turning to `Nc1ccc2[se]nc3c2c1C(=O)c1ccccc1-3`, the T/C is, setting by setting: under setting [9], 98 % of control; under setting [10], 98 % of control; under setting [11], 101 % of control.
In the case of `COC(=O)N1C2CCCCC2=NN(c2ccccc2)N1C(=O)OC` (stereo not drawn), the T/C runs as follows: under setting [11], 100 % of control; under setting [6], 98 % of control; under setting [7], 93 % of control; under setting [8], 91 % of control.
